Data published in US20120238603A1, “TREATMENT FOR INFLAMMATORY BOWEL DISEASE” (SANOFI, priority 2009, published 2012).
Read-outs that look alike come from different tables or passages of the source.

Experiments:
mild to moderate UC = details: cited from earlier work
[1] = target: T1, mouse MCPT-6 (mouse orthologue of human beta-tryptase) (Mus musculus, UniProt P21845); test: Inhibition of recombinant mouse MCPT-6 (Ki); type: biochemical; details: recombinant enzyme
T1 sequence (P21845 32-276): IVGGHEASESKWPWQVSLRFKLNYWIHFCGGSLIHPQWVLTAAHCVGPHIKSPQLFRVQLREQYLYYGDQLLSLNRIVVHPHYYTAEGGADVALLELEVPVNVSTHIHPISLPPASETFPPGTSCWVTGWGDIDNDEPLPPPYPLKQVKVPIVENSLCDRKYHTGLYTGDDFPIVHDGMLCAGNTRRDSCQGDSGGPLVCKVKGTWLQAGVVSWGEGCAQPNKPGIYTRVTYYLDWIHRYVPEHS

[2] = system: TNBS-induced ulcerative colitis; test: Murine TNBS-induced ulcerative colitis; type: in vivo, male balb/mice; details: for % protective effect vs. TNBS alone: Colon wt/length (TNBS-719)/(TNBS-ctl) / % protective effect vs. TNBS alone: Diarrhea / % protective effect vs. TNBS alone: Dilation / % protective effect vs. TNBS alone: MPO / % protective effect vs. TNBS alone: Macroscopic Score / % protective effect vs. TNBS alone: Ulceration / % protective effect vs. TNBS alone: Body wt d 4 (% Δ719-% ΔTNBS)/(% Δ Ctl-% ΔTNBS) / % protective effect vs. TNBS alone: Tissue TNFα: day 4; for % protective effect vs. TNBS alone: Body wt d 4 (% Δ719-% ΔTNBS)/(% Δ Ctl-% ΔTNBS): oral once daily
Method: The effect of the compound of Formula I in murine TNBS-induced ulcerative colitis. TNBS (Trinitro benzene sulfonic acid) is known to induce colitis in some strains of mice and rats by haptenating colonic proteins, resulting in an immune response. This model resembles multiple features, both histologic and immunologic, of human IBD (particularly Crohn's disease).
In some experiments, male balb/mice were pre-sensitized with 1% TNBS administered epicutaneously on day −7. On Day 0, TBNS (2.5 mg/100 mcl) in 35% ethanol or 100 mg/kg TNBS in 50% ethanol, was administered intrarectally, and colitis-relevant readouts were measured 4 days later. The compound of Formula I as hydrochloride salt or as fumarate salt was administered orally in 1% carboxymethylcellulose-Tween. Sulfazalazine was given at 100 mg/kg. Both compounds were given once daily.
• 0 No damage • 1 Hyperemia without ulcers • 2 Hyperemia and bowel wall thickening without ulcers • 3 One site of ulceration without bowel wall thickening • 4 Two or more sites of ulceration/inflammation • 5 0.5 cm inflammation and major damage • 6-10 1 cm or more of major damage (0.5 cm=1 point) • 0/1 Diarrhea +/− • 0/1/2 No dilatation/partial dilatation/dilatation in the whole length

human beta-tryptase = human beta-tryptase (Homo sapiens, UniProt P20231); test: Inhibition of recombinant human beta-tryptase (Ki); type: biochemical; details: recombinant enzyme
TNBS-induced colitis = details: rat; intra-colonic injections of NM 10-9, 10-11 and 10-13 M daily for 6 days; compared with 5-ASA 25 mg/Kg; cited from earlier work
b-tryptase = b-tryptase (Homo sapiens, UniProt P20231); details: reported selective b-tryptase inhibitor at low doses; cited from earlier work
[3] = first Formula I / sulfazalazine column pair, sulfazalazine 100 mg/kg
[4] = second Formula I / sulfazalazine column pair, sulfazalazine 100 mg/kg

Chain of human beta-tryptase (P20231 31-275): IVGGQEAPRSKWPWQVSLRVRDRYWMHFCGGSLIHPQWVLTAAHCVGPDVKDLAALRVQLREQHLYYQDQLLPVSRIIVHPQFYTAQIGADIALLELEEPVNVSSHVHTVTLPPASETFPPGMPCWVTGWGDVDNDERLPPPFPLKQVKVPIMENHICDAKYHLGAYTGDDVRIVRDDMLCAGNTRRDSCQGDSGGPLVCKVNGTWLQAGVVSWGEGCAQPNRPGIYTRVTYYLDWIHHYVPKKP
Chain of b-tryptase (P20231 31-275): as above

Row | SMILES | % protective effect vs. TNBS alone: Body wt d 4 (% Δ719-% ΔTNBS)/(% Δ Ctl-% ΔTNBS) [2, 3] | % protective effect vs. TNBS alone: Colon wt/length (TNBS-719)/(TNBS-ctl) [2, 3] | % protective effect vs. TNBS alone: Diarrhea [2, 3] | % protective effect vs. TNBS alone: Dilation [2, 3] | % protective effect vs. TNBS alone: MPO [2, 3] | % protective effect vs. TNBS alone: Macroscopic Score [2, 3] | % protective effect vs. TNBS alone: Tissue TNFα [2, 3] | % protective effect vs. TNBS alone: Ulceration [2, 3] | % protective effect vs. TNBS alone: Body wt d 4 (% Δ719-% ΔTNBS)/(% Δ Ctl-% ΔTNBS) [2, 4] | % protective effect vs. TNBS alone: Colon wt/length (TNBS-719)/(TNBS-ctl) [2, 4] | % protective effect vs. TNBS alone: Diarrhea [2, 4] | % protective effect vs. TNBS alone: Dilation [2, 4] | % protective effect vs. TNBS alone: MPO [2, 4] | % protective effect vs. TNBS alone: Macroscopic Score [2, 4] | % protective effect vs. TNBS alone: Ulceration [2, 4] | other results
1 | NC(N)=Nc1ccc(CN2CCN(C(=O)O[C@@H]3CO[C@H]4[C@@H]3OC[C@H]4OC(=O)N3CCN(Cc4ccc(N=C(N)N)cc4)CC3)CC2)cc1 [APC-2059] |  |  |  |  |  |  |  |  |  |  |  |  |  |  |  | safety and tolerability (mild to moderate UC; 20 mg, SC, BID for 28 days on background of oral 5-ASA): safe and well tolerated; patients meeting remission criteria (DAI=0) (mild to moderate UC; 20 mg, SC, BID, 28 days, 5/56): 9%; patients meeting primary EP as responded (DAI≦3) (mild to moderate UC; 20 mg, SC, BID, 28 days, 16/56): 29%; patients meeting improved criteria (DAI≦3 or decreased by 4 points from baseline) (mild to moderate UC; 20 mg, SC, BID, 28 days, 27/56): 49%; response rate, post hoc (mild to moderate UC; baseline DAI score 7-9, 6/33): 18%; response rate, post hoc (mild to moderate UC; baseline DAI scores 6-7, 10/22): 45%; response, post hoc (mild to moderate UC; one patient, baseline DAI=11): did not respond
2 | COCCn1cc(C(=O)N2CCC(c3cc(CN)ccc3F)CC2)c2c(OC(F)(F)F)ccc(F)c21 [Formula I, [4-(5-Aminomethyl-2-fluorophenyl)piperidine-1-yl][7-fluoro-1-(2-methoxyethyl)-4-trifluoromethoxy-1H-indol-3-yl]methanone] | 20% | 41% | 50% | 55% | 13% | 51% | 50% | 50% | 27% | 23% | 57% | 33% | 19% | 30% | 21% | Ki [1]: 920 nM; % protective effect vs. TNBS alone: Colon wt/length (TNBS-719)/(TNBS-ctl) ([2]; Formula I 3 mpk): −10%; % protective effect vs. TNBS alone: Diarrhea ([2]; Formula I 3 mpk): 50%; % protective effect vs. TNBS alone: Dilation ([2]; Formula I 3 mpk): 25%; % protective effect vs. TNBS alone: MPO ([2]; Formula I 3 mpk): 0%; % protective effect vs. TNBS alone: Macroscopic Score ([2]; Formula I 3 mpk): 25%; % protective effect vs. TNBS alone: Ulceration ([2]; Formula I 3 mpk): 23%; % protective effect vs. TNBS alone: Colon wt/length (TNBS-719)/(TNBS-ctl) ([2]; Formula I 10 mpk): 16%; % protective effect vs. TNBS alone: Diarrhea ([2]; Formula I 10 mpk): 50%; % protective effect vs. TNBS alone: Dilation ([2]; Formula I 10 mpk): 38%; % protective effect vs. TNBS alone: MPO ([2]; Formula I 10 mpk): 0%; % protective effect vs. TNBS alone: Macroscopic Score ([2]; Formula I 10 mpk): 27%; % protective effect vs. TNBS alone: Ulceration ([2]; Formula I 10 mpk): 25%; decrease of macroscopic damage ([2]; doses ranging from 3-30 mg/kg, oral, once daily, hydrochloride or fumarate salt): 20-50%; protective effects in multiple aspects of experimental colitis ([2]; oral, once daily, versus sulfazalazine positive control): compared well with the sulfazalazine positive control; Ki (human beta-tryptase): 38 nM
3 | N=C(N)c1ccc2cc(OC(=O)c3ccc(N=C(N)N)cc3)ccc2c1 [Nafamostat mesilate] |  |  |  |  |  |  |  |  |  |  |  |  |  |  |  | colonic mucosal inflammation (TNBS-induced colitis): significantly attenuated; Ki (b-tryptase): 0.095 nM
4 | O=C(O)c1cc(/N=N/c2ccc(S(=O)(=O)Nc3ccccn3)cc2)ccc1O [sulfazalazine, reference compound] | 46% | 29% | 50% | 33% | 44% | 51% | 50% | 53% | 10% | 23% | 43% | 8% | 21% | 14% | 11% | 
